#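 Each compound was tested at five concentrations against cells in 96-well plates for 48 hours. TGI: concentration producing complete growth inhibition.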
# Columns and labels:
# Assay in all cases: growth of human tumour cells (NCI), 48 h
# 786-0 renal = tested on: 786-0 renal
# A549 NSCLC = tested on: A549 NSCLC
# ACHN renal = tested on: ACHN renal
# BT-549 breast = tested on: BT-549 breast
# CAKI-1 renal = tested on: CAKI-1 renal
# CCRF-CEM leukemia = tested on: CCRF-CEM leukemia
# COLO 205 colon = tested on: COLO 205 colon
# DU-145 prostate = tested on: DU-145 prostate
# EKVX NSCLC = tested on: EKVX NSCLC
# HCT-116 colon = tested on: HCT-116 colon
# HCT-15 colon = tested on: HCT-15 colon
# HL-60(TB) leukemia = tested on: HL-60(TB) leukemia
# HOP-62 NSCLC = tested on: HOP-62 NSCLC
# HOP-92 NSCLC = tested on: HOP-92 NSCLC
# HT29 colon = tested on: HT29 colon
# K-562 leukemia = tested on: K-562 leukemia
# KM12 colon = tested on: KM12 colon
# LOX IMVI melanoma = tested on: LOX IMVI melanoma
# M14 melanoma = tested on: M14 melanoma
# MALME-3M melanoma = tested on: MALME-3M melanoma
# MCF7 breast = tested on: MCF7 breast
# MDA-MB-231 breast = tested on: MDA-MB-231 breast
# MDA-MB-435 = tested on: MDA-MB-435
# MDA-N = tested on: MDA-N
# MOLT-4 leukemia = tested on: MOLT-4 leukemia
# NCI-H23 lung = tested on: NCI-H23 lung
# NCI-H460 lung = tested on: NCI-H460 lung
# NCI/ADR-RES ovarian = tested on: NCI/ADR-RES ovarian
# OVCAR-3 ovarian = tested on: OVCAR-3 ovarian
# OVCAR-4 ovarian = tested on: OVCAR-4 ovarian
# OVCAR-5 ovarian = tested on: OVCAR-5 ovarian
# OVCAR-8 ovarian = tested on: OVCAR-8 ovarian
# PC-3 prostate = tested on: PC-3 prostate
# RPMI-8226 leukemia = tested on: RPMI-8226 leukemia
# SF-268 CNS = tested on: SF-268 CNS
# SF-295 CNS = tested on: SF-295 CNS
# SF-539 CNS = tested on: SF-539 CNS
# SK-MEL-28 melanoma = tested on: SK-MEL-28 melanoma
# SK-MEL-5 melanoma = tested on: SK-MEL-5 melanoma
# SK-OV-3 ovarian = tested on: SK-OV-3 ovarian
# SN12C renal = tested on: SN12C renal
# SNB-19 CNS = tested on: SNB-19 CNS
# SR leukemia = tested on: SR leukemia
# SW-620 colon = tested on: SW-620 colon
# T-47D breast = tested on: T-47D breast
# TK-10 renal = tested on: TK-10 renal
# U251 CNS = tested on: U251 CNS
# UACC-257 melanoma = tested on: UACC-257 melanoma
# UACC-62 melanoma = tested on: UACC-62 melanoma
# A498 renal = tested on: A498 renal
# HCC-2998 colon = tested on: HCC-2998 colon
# NCI-H226 lung = tested on: NCI-H226 lung
# NCI-H522 lung = tested on: NCI-H522 lung
# RXF 393 renal = tested on: RXF 393 renal
# SK-MEL-2 melanoma = tested on: SK-MEL-2 melanoma
# SNB-75 CNS = tested on: SNB-75 CNS
# UO-31 renal = tested on: UO-31 renal
smiles,measurement,setting,value
Nc1ccccc1OCc1cc(=O)c(OCc2ccccc2)co1,TGI,786-0 renal,76.5 µM
same,TGI,A549 NSCLC,> 100 µM
same,TGI,ACHN renal,> 100 µM
same,TGI,BT-549 breast,> 100 µM
same,TGI,CAKI-1 renal,> 100 µM
same,TGI,CCRF-CEM leukemia,> 100 µM
same,TGI,COLO 205 colon,44.9 µM
same,TGI,DU-145 prostate,> 100 µM
same,TGI,EKVX NSCLC,> 100 µM
same,TGI,HCT-116 colon,> 100 µM
same,TGI,HCT-15 colon,> 100 µM
same,TGI,HL-60(TB) leukemia,> 100 µM
same,TGI,HOP-62 NSCLC,> 100 µM
same,TGI,HOP-92 NSCLC,36.4 µM
same,TGI,HT29 colon,> 100 µM
same,TGI,K-562 leukemia,> 100 µM
same,TGI,KM12 colon,> 100 µM
same,TGI,LOX IMVI melanoma,> 100 µM
same,TGI,M14 melanoma,> 100 µM
same,TGI,MALME-3M melanoma,> 100 µM
same,TGI,MCF7 breast,89 µM
same,TGI,MDA-MB-231 breast,55.8 µM
same,TGI,MDA-MB-435,> 100 µM
same,TGI,MDA-N,> 100 µM
same,TGI,MOLT-4 leukemia,> 100 µM
same,TGI,NCI-H23 lung,> 100 µM
same,TGI,NCI-H460 lung,> 100 µM
same,TGI,NCI/ADR-RES ovarian,> 100 µM
same,TGI,OVCAR-3 ovarian,> 100 µM
same,TGI,OVCAR-4 ovarian,> 100 µM
same,TGI,OVCAR-5 ovarian,> 100 µM
same,TGI,OVCAR-8 ovarian,> 100 µM
same,TGI,PC-3 prostate,> 100 µM
same,TGI,RPMI-8226 leukemia,> 100 µM
same,TGI,SF-268 CNS,> 100 µM
same,TGI,SF-295 CNS,95.1 µM
same,TGI,SF-539 CNS,65.1 µM
same,TGI,SK-MEL-28 melanoma,> 100 µM
same,TGI,SK-MEL-5 melanoma,> 100 µM
same,TGI,SK-OV-3 ovarian,83.7 µM
same,TGI,SN12C renal,0.823 µM
same,TGI,SNB-19 CNS,> 100 µM
same,TGI,SR leukemia,> 100 µM
same,TGI,SW-620 colon,> 100 µM
same,TGI,T-47D breast,> 100 µM
same,TGI,TK-10 renal,61.2 µM
same,TGI,U251 CNS,> 100 µM
same,TGI,UACC-257 melanoma,81.7 µM
same,TGI,UACC-62 melanoma,4.49 µM
COc1ccc2nc3ccc(OC)cc3c(SCC3CO3)c2c1 (stereo not given),TGI,786-0 renal,23.7 µM
same,TGI,A498 renal,> 100 µM
same,TGI,A549 NSCLC,> 100 µM
same,TGI,ACHN renal,21.7 µM
same,TGI,BT-549 breast,30.4 µM
same,TGI,CAKI-1 renal,19.1 µM
same,TGI,CCRF-CEM leukemia,> 100 µM
same,TGI,COLO 205 colon,41.8 µM
same,TGI,EKVX NSCLC,34.2 µM
same,TGI,HCC-2998 colon,29.7 µM
same,TGI,HCT-116 colon,22.7 µM
same,TGI,HCT-15 colon,33.6 µM
same,TGI,HOP-62 NSCLC,> 100 µM
same,TGI,K-562 leukemia,54.1 µM
same,TGI,KM12 colon,34.4 µM
same,TGI,LOX IMVI melanoma,33.4 µM
same,TGI,M14 melanoma,29 µM
same,TGI,MALME-3M melanoma,30.5 µM
same,TGI,MCF7 breast,26.6 µM
same,TGI,MDA-MB-231 breast,28.7 µM
same,TGI,MDA-MB-435,40 µM
same,TGI,MDA-N,30.6 µM
same,TGI,NCI-H226 lung,> 100 µM
same,TGI,NCI-H23 lung,35.4 µM
same,TGI,NCI-H460 lung,31 µM
same,TGI,NCI-H522 lung,33.2 µM
same,TGI,NCI/ADR-RES ovarian,38.5 µM
same,TGI,OVCAR-3 ovarian,28.5 µM
same,TGI,OVCAR-4 ovarian,38.1 µM
same,TGI,OVCAR-5 ovarian,69.3 µM
same,TGI,OVCAR-8 ovarian,25.7 µM
same,TGI,PC-3 prostate,28.6 µM
same,TGI,RPMI-8226 leukemia,74.6 µM
same,TGI,RXF 393 renal,33.5 µM
same,TGI,SF-268 CNS,31.6 µM
same,TGI,SF-295 CNS,> 100 µM
same,TGI,SF-539 CNS,23.7 µM
same,TGI,SK-MEL-2 melanoma,28.4 µM
same,TGI,SK-MEL-28 melanoma,33.5 µM
same,TGI,SK-MEL-5 melanoma,33.5 µM
same,TGI,SK-OV-3 ovarian,> 100 µM
same,TGI,SN12C renal,27.4 µM
same,TGI,SNB-19 CNS,80.4 µM
same,TGI,SNB-75 CNS,> 100 µM
same,TGI,SR leukemia,80.4 µM
same,TGI,SW-620 colon,24.4 µM
same,TGI,T-47D breast,43.6 µM
same,TGI,TK-10 renal,25.8 µM
same,TGI,U251 CNS,27.1 µM
same,TGI,UACC-257 melanoma,29.8 µM
same,TGI,UO-31 renal,24.8 µM

# Reference: PubChem BioAssay (NCI)
